Test results as given in patent US20250051346A1 (priority 2021, published 2025).

Assays:
[1] = system: mice; conditions: mouse, in vivo
[2] = system: 5HT2A sensor; type: cell-based; note: test concentration or dose not given here
[3] = system: 5HT2A sensor; type: cell-based; remark: listed apart in the source; note: test concentration or dose not given here

## 5-MeO-DMT [Compound 5-MeO-DMT]
[1]
  head-twitch response (HTR): robust, dose-dependent head-twitch response
[2]
  activation of the 5HT2A sensor assay: activate the 5HT2A sensor assay in agonist mode

## O=C(c1ccc(F)cc1)C1CCN(CCn2c(=O)[nH]c3ccccc3c2=O)CC1 [Ketanserin]
[2]
  activation of the 5HT2A sensor assay: do not activate the 5HT2A sensor assay in agonist mode
[3]
  competition with 5-HT at 5HT2A in the sensor assay: can compete with 5HT binding to 5HT2A
